In this assay the test system is ROK. In words: ROK activity assay. It counts as biochemical. Details: key: +: active; ++: more active; +++: very active. As to conditions: assays conducted at 1-100 μM.

In US20090163515A1, “Compounds Which Bind to the Active Site of Protein Kinase Enzymes” (Biofocus Discovery Ltd., priority 2003, published 2009) one finds ROK activity data, which are given here for 39 compounds.

Structures are written as SMILES.

Take `CC(=O)c1ccc(-c2cnc(NCCc3ccncc3)cn2)s1` [1-{5-[5-(2-Pyridin-4-yl-ethylamino)-pyrazin-2-yl]-thiophen-2-yl}-ethanone]: the ROK activity result was “+”. The result for `OCCC1CCCCN1c1cnc(-c2ccncc2)cn1` (stereo not drawn) [2-[1-(5-Pyridin-4-yl-pyrazin-2-yl)-piperidin-2-yl]-ethanol] reads “+”. Regarding `Oc1cccc(Nc2cncc(-c3ccncc3)c2)c1` [3-([3,4′]Bipyridinyl-5-ylamino)-phenol], the ROK activity result is given as “++”.

`Oc1cccc(CNc2cncc(-c3ccncc3)c2)c1` [3-([3,4′]Bipyridinyl-5-ylaminomethyl)-phenol]: the ROK activity result is “++”. As to `CC(C)C(CO)Nc1cnc(-c2ccncc2)cn1` (stereo not drawn) [3-Methyl-2-(5-pyridin-4-yl-pyrazin-2-ylamino)-butan-1-ol], the ROK activity result was “+”.

`NC(=O)c1cccc(-c2cncc(NCc3ccc(Cl)c(Cl)c3)c2)c1` [3-[5-(3,4-Dichloro-benzylamino)-pyridin-3-yl]-benzamide]: the ROK activity entry is “++”. With `NC(=O)c1cccc(-c2cncc(NCc3ccc(F)c(F)c3)c2)c1` [3-[5-(3,4-Difluoro-benzylamino)-pyridin-3-yl]-benzamide], the ROK activity entry is “++”. With `NC(=O)c1cccc(-c2cncc(NCc3cc(O)cc(O)c3)c2)c1` [3-[5-(3,5-Dihydroxy-benzylamino)-pyridin-3-yl]-benzamide], the ROK activity entry is “++”. As for `NC(=O)c1cccc(-c2cncc(Nc3cccc(Br)c3)c2)c1` [3-[5-(3-Bromo-phenylamino)-pyridin3-yl]-benzamide], the ROK activity result was “+”. For the compound `NC(=O)c1cccc(-c2cncc(NCc3cccc(Cl)c3)c2)c1` [3-[5-(3-Chloro-benzylamino)-pyridin-3-yl]-benzamide], the ROK activity result is recorded as “++”.

For `COc1ccc(CNc2cncc(-c3cccc(C(N)=O)c3)c2)cc1O` [3-[5-(3-Hydroxy-4-methoxy-benzylamino)-pyridin-3-yl]-benzamide], the ROK activity result is “++”. Regarding `O=C(NCCO)c1cccc(-c2cncc(NCc3cccc(O)c3)c2)c1` [3-[5-(3-Hydroxy-benzylamino)-pyridin-3-yl]-N-(2-hydroxy-ethyl)-benzamide], the ROK activity result is listed as “++”.

Turning to `NC(=O)c1cccc(-c2cncc(NCc3cccc(O)c3)c2)c1` [3-[5-(3-Hydroxy-benzylamino)-pyridin-3-yl]-benzamide], the ROK activity entry is “+++”. In the case of `NC(=O)c1cccc(-c2cncc(Nc3cccc(O)c3)c2)c1` [3-[5-(3-Hydroxy-phenylamino)-pyridin-3-yl]-benzamide], the ROK activity entry was “++”. With `NC(=O)c1cccc(-c2cncc(NCc3cccc(OC(F)(F)F)c3)c2)c1` [3-[5-(3-Trifluoromethoxy-benzylamino)-pyridin-3-yl]-benzamide], the ROK activity entry is listed as “++”.

On to `NC(=O)c1cccc(-c2cncc(NCc3ccc(Cl)c(F)c3)c2)c1` [3-[5-(4-Chloro-3-fluoro-benzylamino)-pyridin-3-yl]-benzamide], for which the ROK activity result is given as “++”. Consider `NC(=O)c1cccc(-c2cncc(NCc3ccc(Cl)cc3)c2)c1` [3-[5-(4-Chloro-benzylamino)-pyridin-3-yl]-benzamide], for which the ROK activity entry was “++”. For the compound `Oc1cccc(-c2cncc(Nc3ccc(Cl)cc3)c2)c1` [3-[5-(4-Chloro-phenylamino)-pyridin-3-yl]-phenol], the ROK activity result was “+”. Take `NC(=O)c1cccc(-c2cncc(NCc3ccc(O)cc3)c2)c1` [3-[5-(4-Hydroxy-benzylamino)-pyridin-3-yl]-benzamide]: the ROK activity entry was “++”. The result for `COc1ccc(CNc2cncc(-c3cccc(C(N)=O)c3)c2)cc1` [3-[5-(4-Methoxy-benzylamino)-pyridin-3-yl]-benzamide] reads “+”. Regarding `COc1ccc(Nc2cncc(-c3cccc(C(N)=O)c3)c2)cc1` [3-[5-(4-Methoxy-phenylamino)-pyridin-3-yl]-benzamide], the ROK activity result is on record as “+”. The result for `COc1ccc(Nc2cncc(-c3cccc(O)c3)c2)cc1` [3-[5-(4-Methoxy-phenylamino)-pyridin-3-yl]-phenol] reads “++”; that for `NC(=O)c1cccc(-c2cncc(NCC3CCCCC3)c2)c1` [3-[5-(Cyclohexylmethyl-amino)-pyridin-3-yl]-benzamide], “+”; that for `Oc1cccc(-c2cncc(Nc3ccc4ccccc4c3)c2)c1` [3-[5-(Naphthalen-2-ylamino)-pyridin-3-yl]-phenol], “+”. For the compound `Oc1cccc(CNc2cncc(-c3ccncc3Cl)c2)c1` [3-[(3′-Chloro-[3,4′]bipyridinyl-5-ylamino)-methyl]-phenol], the ROK activity entry was “+++”. With `Oc1cccc(CNc2cncc(-c3ccc4c(c3)OCO4)c2)c1` [3-[(5-Benzo[1,3]dioxol-5-yl-pyridin-3-ylamino)-methyl]-phenol] the entry was “++”; with `Oc1cccc(CNc2cncc(-c3cncc4ccccc34)c2)c1` [3-[(5-Isoquinolin-4-yl-pyridin-3-ylamino)-methyl]-phenol], “+”. For `Oc1cccc(CNc2cncc(-c3ccccc3)c2)c1` [3-[(5-Phenyl-pyridin-3-ylamino)-methyl]-phenol], the ROK activity entry was “+”.

Consider `Oc1cccc(CNc2cncc(-c3cccc4ncccc34)c2)c1` [3-[(5-Quinolin-5-yl-pyridin-3-ylamino)-methyl]-phenol], for which the ROK activity entry is listed as “+++”.

For the compound `COc1cncc(-c2cncc(NCc3cccc(O)c3)c2)c1` [3-[(5′-Methoxy-[3,3′]bipyridinyl-5-ylamino)-methyl]-phenol], the ROK activity entry is “+”. In the case of `NC(=O)c1cccc(-c2cncc(NCc3ccc4c(c3)OCO4)c2)c1` [3-{5-[(Benzo[1,3]dioxol-5-ylmethyl)-amino]-pyridin-3-yl}-benzamide], the ROK activity entry is given as “+”.

Turning to `NC(=O)c1cccc(-c2cncc(NCc3ccoc3)c2)c1` [3-{5-[(Furan-3-ylmethyl)-amino]-pyridin-3-yl}-benzamide], the ROK activity entry was “+”.

With `NC(=O)c1cccc(-c2cncc(NCc3cccnc3)c2)c1` [3-{5-[(Pyridin-3-ylmethyl)-amino]-pyridin-3-yl}-benzamide], the ROK activity result is reported as “+”. The result for `NC(=O)c1cccc(-c2cncc(NCC3CCCN3)c2)c1` (stereo not drawn) [3-{5-[(Pyrrolidin-2-ylmethyl)-amino]-pyridin-3-yl}-benzamide] reads “+”.

As to `Oc1cccc(CNc2cncc(-c3ccc4[nH]ccc4c3)c2)c1` [3-{[5-(1H-Indol-5-yl)-pyridin-3-ylamino]-methyl}-phenol], the ROK activity entry was “+”.

Take `Oc1cccc(CNc2cncc(-c3cc[nH]n3)c2)c1` [3-{[5-(1H-Pyrazol-3-yl)-pyridin-3-ylamino]-methyl}-phenol]: the ROK activity result is recorded as “++”. For `Nc1cccc(-c2cncc(NCc3cccc(O)c3)c2)c1` [3-{[5-(3-Amino-phenyl)-pyridin-3-ylamino]-methyl}-phenol], the ROK activity result is listed as “+”. Take `OCc1cccc(-c2cncc(NCc3cccc(O)c3)c2)c1` [3-{[5-(3-Hydroxymethyl-phenyl)-pyridin-3-ylamino]-methyl}-phenol]: the ROK activity entry is “+”. For the compound `Nc1ccc(-c2cncc(NCc3cccc(O)c3)c2)cc1` [3-{[5-(4-Amino-phenyl)-pyridin-3-ylamino]-methyl}-phenol], the ROK activity result is “+”.
